Values of other authors in patent publication US12539267B2, “Product for dyeing keratinous material, containing aminosilicone, a chromophoric compound and organic carbonic acid ester” (Henkel AG & Co. KGaA, priority 2019, dated 2026).

Settings: 25° C.

Row | solubility in water (in words) | SMILES | solubility in water
1 | – | O=S(=O)([O-])c1ccc(N=Nc2c(O)ccc3ccccc23)cc1.[Na+] [Acid Orange 7, sodium salt of 4-[(2-hydroxy-1-naphthyl)azo]benzene sulphonate] | more than 7 g/L
2 | – | Nc1cc(S(=O)(=O)[O-])cc2cc(S(=O)(=O)[O-])c(N=Nc3ccccc3)c(O)c12.[Na+].[Na+] [Acid Red 33, diantrium salt of 5-amino-4-hydroxy-3-(phenylazo)-naphthalene-2,7-disulphonate] | 2500 µg/mL
3 | – | O=C([O-])c1c(Cl)c(Cl)c(Cl)c(Cl)c1-c1c2c(Br)cc(=O)c(Br)c-2oc2c(Br)c(O)cc(Br)c12.O=C([O-])c1c(Cl)c(Cl)c(Cl)c(Cl)c1-c1c2c(Br)cc(=O)c(Br)c-2oc2c(Br)c(O)cc(Br)c12.[Na+].[Na+] [Acid Red 92, disodium salt of 3,4,5,6-tetrachloro-2-(1,4,5,8-tetrabromo-6-hydroxy-3-oxoxanthen-9-yl)benzoic acid] | greater than 10 g/L
4 | highly soluble in water | O=C([O-])C1=NN(c2ccc(S(=O)(=O)[O-])cc2)C(=O)C1N=Nc1ccc(S(=O)(=O)[O-])cc1.[Na+].[Na+].[Na+] (stereo not shown) [Acid Yellow 23, trisodium salt of 4,5-dihydro-5-oxo-1-(4-sulfophenyl)-4-((4-sulfophenyl)azo)-1H-pyrazole-3-carboxylic acid] | –
